The values that follow come from article PMC10458458, “Characterization of Anticancer Effects of the Analogs of DJ4, a Novel Selective Inhibitor of ROCK and MRCK Kinases” (Pharmaceuticals, 2023).

Assay [1] relates to A549. In words: MTT cytotoxicity assay, 72 h. As to conditions: Homo sapiens, A549 NSCLC cells, plated to confluence, read-out: IC50 (mean cytotoxic concentration, MTT). The class given is cell-based. The protocol: (§1) To determine whether the effects on cell viability in AML cells were related to the specific cancer subtypes, or to differences in temporal response to DJ4, we examined whether DJ4 affected the viability of various NSCLC cells over longer periods of drug exposure. MTT assays were performed on H1299, H226, A549, H522, H23, and H460 NSCLC cell lines. […] Similarly, the cell viability of MDA-MB-231 breast cancer cells was assessed by counting live/dead cell populations after a 24-h treatment with 1–10 µM concentrations of DJ4. A concentration-dependent increase in cell death from 29% (1 µM) to 47% (10 µM) was observed (Figure 2B).
(§2) The cytotoxic effect of DJ4 was studied in H1299, H226, A549, H522, H23, and H460 non-small cell lung cancer cells. The cells were seeded into 96-well plates with confluence ([…]). The cells were further treated with DMSO or DJ4 for 72 h. To study the effects of analogs, A549, A375M, and MDA-MB-231 cells were plated with low density (2000 cells/well) in a 96-well plate and grown overnight at 37 °C (with 5% CO2). Cells were treated with the analogs at the concentration of 0–10 µM for 48 h. At the end of the treatment period, cells were incubated with a tetrazolium dye MTT (3-(4,5-dimethylthiazol-2-yl)-2,5-diphenyltetrazolium bromide) reagent (Sigma) at 37 °C for 3 h to develop formazan crystals. The media was siphoned off and crystals were dissolved in DMSO and mixed gently on rocker for 5 min. Absorbance was read at 570 nm and 630 nm (background) wavelength. IC50 values were calculated from non-linear regression curve fit by using GraphPad Prism 5.0 software.

The subject of assay [2] is H1299. In words: MTT cytotoxicity assay, 72 h. The class given is cell-based. As to conditions: Homo sapiens, NCI-H1299, H1299 NSCLC cells, plated to confluence, read-out: IC50 (mean cytotoxic concentration, MTT). The protocol:
as §1, §2

Assay [3] relates to H226. The experiment in a line: MTT cytotoxicity assay, 72 h. The format is cell-based. As to conditions: Homo sapiens, NCI-H226, H226 NSCLC cells, plated to confluence, read-out: IC50 (mean cytotoxic concentration, MTT). The protocol:
as §1, §2

For assay [4], the system named is H23. In words: MTT cytotoxicity assay, 72 h. The format is cell-based. As to conditions: Homo sapiens, NCI-H23, H23 NSCLC cells, plated to confluence, read-out: IC50 (mean cytotoxic concentration, MTT). The protocol:
as §1, §2

Assay [5] has as its system H460. The experiment in a line: MTT cytotoxicity assay, 72 h. The class given is cell-based. As to conditions: Homo sapiens, NCI-H460, H460 NSCLC cells, plated to confluence, read-out: IC50 (mean cytotoxic concentration, MTT). The protocol:
as §1, §2
(In general: Tetrazolium assays rely on reduction of a dye to a coloured formazan, in cell work by metabolically active cells.)

Assay [6] has as its system H522. The experiment in a line: MTT cytotoxicity assay, 72 h. The format is cell-based. As to conditions: Homo sapiens, NCI-H522, H522 NSCLC cells, plated to confluence, read-out: IC50 (mean cytotoxic concentration, MTT). On the procedure:
as §1, §2

The subject of assay [7] is pMYPT1 (Thr696 and Thr853) in MDA-MB-231 cells. The experiment in a line: Western blot of MYPT1 phosphorylation (ROCK1/2 targeting). The format is cell-based, human. As to conditions: MDA-MB-231, 2.5, 5.0 and 10 µM, 24 h. The protocol: To extend these observations to MDA-MB-231 breast cancer cells, cells were treated with DJ4 at 2.5, 5.0, and 10 µM for 24 h. ROCK1/2 catalyzes the inactivating phosphorylation of the myosin phosphatase subunit MYPT1 at Thr696 and Thr853 [16]. To confirm the targeting of ROCK1/2 by DJ4 in MDA-MB-231 cells, we probed for phosphorylation of MYPT1.
For protein expression studies, MDA-MB-231 cells were treated with indicated concentrations of DJ4 for 24 h. Additionally, A549 cells were treated for 24 h and 48 h. Cell lysate preparation, protein estimation, and Western blot analysis was performed as per the procedure reported earlier. The blots were probed with cleaved caspase 7 (#9492, Cell Signaling, Danvers, MA, USA), GAPDH (#97166, Cell Signaling, Danvers, MA, USA), β-Actin (#3700, Cell Signaling, Danvers, MA, USA), pErk (#5726, Cell Signaling, Danvers, MA, USA), p21 ^WAF1/CIP1 (#60480, Cell Signaling, Danvers, MA, USA), cyclinD3 (#2936, Cell Signaling, Danvers, MA, USA), CDK4 (#23972, Cell Signaling, Danvers, MA, USA), cleaved PARP (#32563, Cell Signaling, Danvers, MA, USA), pan Erk (#23887, Cell Signaling, Danvers, MA, USA), pMYPT1 (Thr853, # SAB4503944, Millipore, Inc., Burlington, MA, USA) and PCNA (#sc-56, Santa Cruz Biotechnology, Inc., Dallas, TX, USA) antibodies.
On the technique in general: Immunoblotting shows a protein as a band on a membrane.

In the case of `O=C1N/C(=N\CCc2ccccc2)S/C1=C/c1c[nH]c2ncccc12` [DJ4], the IC50 in assay [1] is 0.98 ± 0.21 µM; in assay [2], 0.44 ± 0.04 µM; in assay [3], 0.67 ± 0.38 µM; in assay [4], 2.91 ± 0.71 µM; in assay [5], 9.53 µM; in assay [6], 1.69 ± 0.48 µM. Besides, the “pMYPT1 (Thr696 and Thr853)” value in assay [7] is “concentration-dependent decrease”.
